From patent publication US12258370B2, “Betulastatin compounds” (Arizona Board of Regents on behalf of Arizona State …, priority 2017, dated 2025)
Converted amounts (≈) assume the structure as drawn.

Assays:
Format in all cases: cell-based
BXPC-3 (pancreas) = assay: Sulforhodamine B human cancer cell growth inhibition, BXPC-3; conditions: BXPC-3 pancreas cell line, compounds in DMSO, 48 h; for IC50: Homo sapiens, read-out: Gl50 Growth Inhibition, XPC-3
Description: (§1) Cancer Cell Line Procedures. Inhibition of human cancer cell growth was assessed using the standard sulforhodamine B assay of the U.S. National Cancer Institute, as previously described.^15 To begin, cells in a 5% fetal bovine serum/RPMI1640 medium were inoculated in 96-well plates and incubated for 24 h. Next, serial dilutions of the compounds were added. After 48 h, the plates were fixed with trichloroacetic acid, stained with sulforhodamine B, and read with an automated microplate reader.

MCF-7 (breast) = assay: Sulforhodamine B human cancer cell growth inhibition, MCF-7; conditions: compounds in DMSO, 48 h; for IC50: Homo sapiens, MCF7, MCF-7 breast cell line, read-out: Gl50 Growth Inhibition, MCF-7; for Gl50 Growth Inhibition, MCF-7: MCF-7 breast cell line
Description: as §1

SF-268 (CNS) = assay: Sulforhodamine B human cancer cell growth inhibition, SF-268; conditions: SF-268 CNS cell line, compounds in DMSO, 48 h; for IC50: Homo sapiens, read-out: Gl50 Growth Inhibition, SF-268
Description: as §1

NCI-H460 (lung) = assay: Sulforhodamine B human cancer cell growth inhibition, NCI-H460; conditions: NCI-H460 lung cell line, compounds in DMSO, 48 h; for IC50: Homo sapiens, read-out: Gl50 Growth Inhibition, NCI-H460
Description: as §1

KM20L2 (colon) = assay: Sulforhodamine B human cancer cell growth inhibition, KM20L2; conditions: compounds in DMSO, 48 h; for IC50: Homo sapiens, KM-20L2, KM20L2 colon cell line, read-out: Gl50 Growth Inhibition, KM20L2; for Gl50 Growth Inhibition, KM20L2: KM20L2 colon cell line
Description: as §1

DU-145 (prostate) = assay: Sulforhodamine B human cancer cell growth inhibition, DU-145; conditions: DU-145 prostate cell line, compounds in DMSO, 48 h; for IC50: Homo sapiens, read-out: Gl50 Growth Inhibition, DU-145
Description: as §1

Human Cancer Cell Lines = assay: Human cancer cell line panel, overall comparison of growth inhibition; conditions: general statement on Table 1; comparator not stated
Description: as §1, with “reader. A growth inhibition of 50% (GI50 or the drug concentration causing a 50% reduction in the net protein increase) was calculated from optical density data with Immunosoft® software.” for “reader.”

| Compound | IC50 (BXPC-3 (pancreas)) [µg/mL] | IC50 (MCF-7 (breast)) [µg/mL] | IC50 (SF-268 (CNS)) [µg/mL] | IC50 (NCI-H460 (lung)) [µg/mL] | IC50 (KM20L2 (colon)) [µg/mL] | IC50 (DU-145 (prostate)) [µg/mL] | fold increase in cancer cell growth inhibition (Human Cancer Cell Lines) | Gl50 Growth Inhibition, XPC-3 (BXPC-3 (pancreas)) [µg/mL] | Gl50 Growth Inhibition, MCF-7 (MCF-7 (breast)) [µg/mL] | Gl50 Growth Inhibition, SF-268 (SF-268 (CNS)) [µg/mL] | Gl50 Growth Inhibition, NCI-H460 (NCI-H460 (lung)) [µg/mL] | Gl50 Growth Inhibition, KM20L2 (KM20L2 (colon)) [µg/mL] | Gl50 Growth Inhibition, DU-145 (DU-145 (prostate)) [µg/mL] |
| --- | --- | --- | --- | --- | --- | --- | --- | --- | --- | --- | --- | --- | --- |
| C=C(CNC(=O)[C@H](C)[C@@H](OC)C1CCCN1C(=O)C[C@@H](OC)[C@H]([C@@H](C)CC)N(C)C(=O)[C@@H](NC(=O)C(C(C)C)N(C)C)C(C)C)[C@@H]1CC[C@]2(CO)CC[C@]3(C)C(CCC4[C@@]5(C)CC[C@H](O)C(C)(C)[C@@H]5CC[C@]43C)[C@@H]12 (stereo partly drawn) [Compound 16b, 30-N-(Dap-Dil-Val-Dov)-betulin] | 0.4 (≈ 0.385 µM) | 0.08 (≈ 0.077 µM) | 0.04 (≈ 0.0385 µM) | 0.5 (≈ 0.481 µM) | 0.09 (≈ 0.0867 µM) | 0.04 (≈ 0.0385 µM) | hundred-fold |  |  |  |  |  |  |
| CC[C@H](C)C([C@@H](CC(=O)N1CCCC1[C@H](OC)[C@@H](C)C(=O)NCCN1C(=O)[C@]23CCC(C)(C)C1C2[C@H]1CCC2[C@@]4(C)CC[C@H](O)C(C)(C)C4CC[C@@]2(C)[C@]1(C)CC3)OC)N(C)C(=O)[C@@H](NC(=O)[C@H](C(C)C)N(C)C)C(C)C (stereo partly drawn) [Compound 18b, 28-Amido-allobetulin-28-N-1′-ethyldiamine-N-2′-Dap-Dil-Val-Dov] | 0.31 (≈ 0.287 µM) | 0.21 (≈ 0.195 µM) | 0.09 (≈ 0.0834 µM) | 0.6 (≈ 0.556 µM) | 0.22 (≈ 0.204 µM) | 0.06 (≈ 0.0556 µM) | ~10 fold |  |  |  |  |  |  |
| 3β-Amino-N-(Dap-Dil-Val-Dov)-betulin [Compound 11b] |  |  |  |  |  |  | ~10 fold | 2.0 | 0.70 | 0.40 | 2.1 | 0.85 | 0.40 |
| C=C(C)[C@@H]1CC[C@]2(CNC(=O)[C@H](C)[C@@H](OC)C3CCCN3C(=O)C[C@@H](OC)[C@H]([C@@H](C)CC)N(C)C(=O)C(NC(=O)[C@H](C(C)C)N(C)C)C(C)C)CC[C@]3(C)C(CCC4[C@@]5(C)CC[C@H](O)C(C)(C)C5CC[C@]43C)C12 (stereo partly drawn) [Compound 7b, Betulin-28-amino-N-(Dap-Dil-Val-Dov)] | 0.6 (≈ 0.587 µM) | 0.4 (≈ 0.391 µM) | 0.3 (≈ 0.293 µM) | > 1 | 0.31 (≈ 0.303 µM) | 0.4 (≈ 0.391 µM) | ~10 fold |  |  |  |  |  |  |
| C=C(C)[C@@H]1CC[C@]2(COC(C)=O)CC[C@]3(C)[C@H](CC[C@@H]4[C@@]5(C)CCC(N)C(C)(C)[C@@H]5CC[C@]43C)[C@@H]12 (single isomer, unassigned) [Compound 9b, 3-α/β-Amino-28-O-acetyl-betulin] |  |  |  |  |  |  | ~10 fold | 1.1 | 0.20 | 0.21 | 0.21 | 0.35 | 0.13 |
